Measurements published in PMC11876671, “Investigating blood–brain barrier penetration and neurotoxicity of natural products for central nervous system drug development” (Scientific Reports, 2025).
Where a name gives a salt, the structure may show the parent alone.

Test: in vitro
Conditions: PAMPA, PAMPA-BBB Pe

Compound | Papp
COc1cc2c(cc1OC)[C@@]13CCN4CC5=CCO[C@H]6CC(=O)N2[C@H]1[C@H]6[C@H]5C[C@H]43 [BRUCINUM] | 16 ×10⁻⁶ cm/s
CC(C)(O)CC[C@@H](O)[C@](C)(O)[C@H]1CC[C@@]2(O)C3=CC(=O)[C@@H]4C[C@@H](O)[C@@H](O)C[C@]4(C)[C@H]3CC[C@]12C [COMMISTERONE] | 14 ×10⁻⁶ cm/s

Same assay, conditions: PAMPA, PAMPA-BBB Pe(10^-6 cm/sec)

Compound | Papp
COc1cc(/C=C/C(N)=O)cc(OC)c1OC [CINTRIAMIDE] | 2.3 ×10⁻⁶ cm/s
COc1cc2c(c(OC)c1OC)-c1ccc(OC)c(=O)cc1[C@@H](NC(C)=O)CC2 [COLCHCINE] | < 1 ×10⁻⁶ cm/s
O=c1cccc2n1C[C@@H]1CNC[C@H]2C1 [CYTISINE] | < 1 ×10⁻⁶ cm/s
CN(C)[C@@H]1C(O)=C(C(N)=O)C(=O)[C@@]2(O)C(O)=C3C(=O)c4c(O)ccc(Cl)c4[C@@H](O)[C@H]3C[C@@H]12 [DEMECLOCYCLINE HYDROCHLORIDE] | 1.5 ×10⁻⁶ cm/s
O=C(O)c1cccc(C(=O)O)n1 [D[…]] | < 1 ×10⁻⁶ cm/s

Same assay, conditions: PAMPA, PAMPA-BBB Pe(10^-6 cm/sec), Table S3: compounds exhibiting low PAMPA-BBB permeability

Compound | Papp
Oc1ccc2c(c1)OC[C@]1(O)Cc3cc(O)c(O)cc3[C@H]21 [BRAZILIN] | 1.9 ×10⁻⁶ cm/s
O=C(/C=C/c1ccc(O)c(O)c1)c1ccc(O)cc1O [BUTEIN] | < 1 ×10⁻⁶ cm/s
O=C(O)/C=C/c1ccc(O)c(O)c1 [CAFFEIC ACID] | < 1 ×10⁻⁶ cm/s
COc1ccc2c(c1OC)CN1CCc3cc4c(cc3[C@@H]1C2)OCO4 [CANADINE] | 5.5 ×10⁻⁶ cm/s
COc1ccc2cc1Oc1ccc(cc1)C[C@H]1c3c(cc4c(c3Oc3cc5c(cc3OC)CCN(C)[C@@H]5C2)OCO4)CCN1C [CEPHARANTHINE] | < 1 ×10⁻⁶ cm/s
CO[C@H]1[C@@H](O)[C@@H](C)O[C@H](O[C@H]2[C@H](Oc3cccc4c(O)c5c(=O)oc6ccc(C)c7c(=O)oc(c34)c5c67)O[C@H](C)[C@H](O)[C@@H]2O)[C@@H]1O [CHARTREUSIN] | 4 ×10⁻⁶ cm/s
O=C(/C=C/c1ccc(O)c(O)c1)O[C@@H]1C[C@](O)(C(=O)O)C[C@@H](O)[C@H]1O [CHLOROGENIC ACID] | < 1 ×10⁻⁶ cm/s
C=C1CC[C@H](O)C/C1=C/C=C1\CCC[C@]2(C)[C@@H]([C@H](C)CCCC(C)C)CC[C@@H]12 [CHOLECALCIFEROL] | < 1 ×10⁻⁶ cm/s
CO[C@@H]1[C@H](O)C[C@@H](O[C@@H]2C[C@H](Oc3cc4cc5c(c(O)c4c(O)c3C)C(=O)[C@@H](O[C@H]3C[C@@H](O[C@H]4C[C@@H](O[C@H]6C[C@](C)(O)[C@@H](OC(C)=O)[C@H](C)O6)[C@H](O)[C@@H](C)O4)[C@H](O)[C@@H](C)O3)[C@H]([C@H](OC)C(=O)[C@@H](O)[C@@H](C)O)C5)O[C@H](C)[C@@H]2OC(C)=O)O[C@@H]1C [CHROMOMYCIN A3] | < 1 ×10⁻⁶ cm/s
N[C@@H](Cc1c[nH]c2ccc(O)cc12)C(=O)O [CINCOFARM] | < 1 ×10⁻⁶ cm/s
O=C(O)/C=C/c1ccccc1 [CINNAMIC ACID] | < 1 ×10⁻⁶ cm/s
C=CC(C)=CCC=C(C)C [CIS BETA OCIMENE] | 3.9 ×10⁻⁶ cm/s
CC(C)(COP(=O)(O)OP(=O)(O)OC[C@H]1O[C@@H](n2cnc3c(N)ncnc32)[C@H](O)[C@@H]1OP(=O)(O)O)[C@@H](O)C(=O)NCCC(=O)NCCS [COENZYME A] | < 1 ×10⁻⁶ cm/s
Nc1ncnc2c1ncn2[C@@H]1O[C@H](CO)C[C@H]1O [CORDYCEPIN] | < 1 ×10⁻⁶ cm/s
O=c1cc(-c2ccc(O)cc2)oc2cc(O[C@H]3OC(CO)C(O)C(O)C3O)cc(O)c12 (stereo partly shown) [COSMOSIOSIDE] | 1.6 ×10⁻⁶ cm/s
COc1c2c(cc3c1OCO3)CC[N+](C)=C2 [COTARNINIUM] | < 1 ×10⁻⁶ cm/s

Compound | Papp
CN1C(=O)CC[C@H]1c1cccnc1 [COTININE] | < 1 ×10⁻⁶ cm/s
CC(/C=C/C=C(\C)C(=O)O[C@@H]1O[C@H](CO[C@@H]2O[C@H](CO)[C@@H](O)[C@H](O)[C@H]2O)[C@@H](O)[C@H](O)[C@H]1O)=C\C=C\C=C(C)\C=C\C=C(/C)C(=O)O[C@@H]1O[C@H](CO[C@@H]2O[C@H](CO)[C@@H](O)[C@H](O)[C@H]2O)[C@@H](O)[C@H](O)[C@H]1O [CROCIN] | 6.1 ×10⁻⁶ cm/s
CC(C=O)Cc1ccc(C(C)C)cc1 (stereo not shown) [CYCLAMEN ALDEHYDE] | 8.2 ×10⁻⁶ cm/s
O=C(/C=C/c1ccc(O)c(O)c1)O[C@@H]1C[C@@](OC(=O)/C=C/c2ccc(O)c(O)c2)(C(=O)O)C[C@@H](O)[C@@H]1O [CYNARINE] | < 1 ×10⁻⁶ cm/s
O=c1c(-c2ccc(O)cc2)coc2cc(O[C@@H]3O[C@H](CO)[C@@H](O)[C@H](O)[C@H]3O)ccc12 [DAIDZIN] | < 1 ×10⁻⁶ cm/s
O=c1ccc2ccc(O)c(O)c2o1 [DAPHNETIN] | 3.8 ×10⁻⁶ cm/s
O=c1ccc2ccc(O[C@@H]3O[C@H](CO)[C@@H](O)[C@H](O)[C@H]3O)c(O)c2o1 [DAPHNIN] | < 1 ×10⁻⁶ cm/s
O=c1c(O)c(-c2ccccc2O)oc2cc(O)cc(O)c12 [DATISCETIN] | 2.2 ×10⁻⁶ cm/s
CC(C)Nc1nc(N)nc(Cl)n1 [DEETHYLATRAZINE] | 6.8 ×10⁻⁶ cm/s
CNCCc1ccc(O)c(O)c1 [DEOXYEPINEPHRINE HYDROCHLORIDE] | < 1 ×10⁻⁶ cm/s
O=c1ccn([C@H]2C[C@H](O)[C@@H](CO)O2)c(=O)[nH]1 [DEOXYURIDINE] | < 1 ×10⁻⁶ cm/s
O=C1c2c(O)cc(O)cc2O[C@H](c2cc(O)c(O)c(O)c2)[C@H]1O [DIHYDROMYRICETIN] | < 1 ×10⁻⁶ cm/s
Cc1cccc2c3c(ccc12)C1=C(C(=O)C3=O)[C@@H](C)CO1 [DIHYDROTANSHINONE I] | 3.7 ×10⁻⁶ cm/s
N[C@H](C(=O)O)c1cc(O)cc(O)c1 [DIHYDROXYPHENYLGLYCINE] | < 1 ×10⁻⁶ cm/s
O=C(O)Cc1ccc(O)c(O)c1 [DOPACETIC ACID] | < 1 ×10⁻⁶ cm/s
Oc1cc(O)c2cc(O)c(-c3cc(O)c(O)c(O)c3)[o+]c2c1 [D[…]] | 4.7 ×10⁻⁶ cm/s

Same assay, conditions: PAMPA, PAMPA-BBB Pe, Table S2: compounds exhibiting moderate to high PAMPA-BBB permeability

Compound | Papp
COc1cc2c(cc1O)C[C@H]1c3c(cc(O)c(OC)c3-2)CCN1C [BOLDINE] | 49 ×10⁻⁶ cm/s
C[C@]12CC[C@H](O)C[C@H]1CC[C@@H]1[C@@H]2CC[C@]2(C)[C@@H](c3ccc(=O)oc3)C[C@H]3O[C@]132 [BUFOGENIN] | 115 ×10⁻⁶ cm/s
CCN1C[C@@]2(COC)CCC(OC)[C@@]34[C@@H]1C([C@H](OC)[C@H]23)[C@@]1(OC(C)=O)C[C@H](OC)[C@@]2(O)C[C@H]4C1[C@H]2OC(=O)c1ccc(OC)cc1 (stereo partly shown) [BULLE[…]] | 17 ×10⁻⁶ cm/s
Cc1ccc(C(C)C)cc1O [CARVACROL] | 111 ×10⁻⁶ cm/s
COc1ccc(-c2oc3cc(O[C@@H]4O[C@H](CO)[C@@H](O)[C@H](O)[C@H]4O)c(OC)c(O)c3c(=O)c2OC)cc1O [CENTAUREIN] | 38 ×10⁻⁶ cm/s
COc1ccc2c(c[n+](C)c3c4cc5c(cc4ccc23)OCO5)c1OC [CHELE[…]] | 95 ×10⁻⁶ cm/s
COc1cc(-c2cc(=O)c3c(O)cc(O)cc3o2)ccc1O [CHRYSERIOL] | 179 ×10⁻⁶ cm/s
C=C[C@H]1C[N@@]2CC[C@H]1C[C@@H]2[C@@H](O)c1ccnc2ccccc12 [CINCHONINE] | 22 ×10⁻⁶ cm/s
CC(=O)OCC=Cc1ccccc1 [CINNAMYL ACETATE] | 88 ×10⁻⁶ cm/s
O=c1ccc2ccccc2o1 [COUMARIN] | 74 ×10⁻⁶ cm/s
COc1cc(/C=C/c2ccccc2)oc(=O)c1 [DEMETHOXYYANGONIN] | 186 ×10⁻⁶ cm/s
C[C@]12CC[C@H]3[C@@H](CCC4=CC(=O)CC[C@@]43C)[C@@H]1CC[C@@H]2C(=O)CO [DESOXYCORTICOSTERONE] | 65 ×10⁻⁶ cm/s
COC1=CC(=O)O[C@@H](CCc2ccccc2)C1 [DIHYDROKAWAIN] | 82 ×10⁻⁶ cm/s
COc1cc2c(O)c3c(c(-c4ccc5c(c4)OCO5)c2cc1OC)C(=O)OC3 [DIPHYLLIN] | 187 ×10⁻⁶ cm/s
C[C@]12CCC(=O)C=C1[C@@H]1C[C@@H]1[C@H]1[C@@H]3[C@@H]4C[C@@H]4[C@@]4(CCC(=O)O4)[C@@]3(C)CC[C@@H]12 [DROSPIRENONE] | 169 ×10⁻⁶ cm/s
COc1cc(C)c(C(=O)Oc2cc(C)c(C(=O)O)c(O)c2C)c(OC)c1C [Diffractaic acid] | 15 ×10⁻⁶ cm/s
